Assays:
ECHCG [1] = test: A. Herbicidal pre-emergence action on harmful plants (Tables A); assay type: in vivo, Echinochloa crus-galli; conditions: visual grading after ca. 3 weeks vs untreated controls, 100% = plants have died off, 0% = as control plants
Excerpt: (§1) Seeds of mono- and dicotyledonous weed plants were sown in plastic pots (double sowings with one species of mono- and one species of dicotyledonous weed plants per pot), in sandy loam, and covered with soil. The compounds according to the invention, formulated in the form of wettable powders (WP) or as emulsifiable concentrates (EC), were applied to the surface of the covering soil as aqueous suspension or emulsion, with the addition of 0.5% of an additive, at an application rate of 6001 of water per hectare (converted). Following treatment, the pots were placed in a greenhouse and kept under optimum growth conditions for the test plants. The visual grading of the damage to the test plants was carried out after ca. 3 weeks in comparison to untreated controls (herbicidal effect in percent (%): 100% effect = plants have died off, 0% effect = as control plants). Tables A1 to A12, below, show the effects of selected compounds of the general formula (I) according to table 1 on various harmful plants and an application rate corresponding to 1280 g/ha or below obtained by the experimental procedure mentioned above. Table A1: pre-emergence activity at 1280g/ha against ABUTH in %

SETVI = test: as above; assay type: in vivo, Setaria viridis; conditions: visual grading after ca. 3 weeks vs untreated controls, 100% = plants have died off, 0% = as control plants
Excerpt: as §1

POAAN [2] = test: as above; assay type: in vivo, Poa annua
Excerpt: as §1

ALOMY = test: as above; assay type: in vivo, Alopecurus myosuroides
Excerpt: as §1

LOLRI = test: as above; assay type: in vivo, Lolium rigidum; conditions: visual grading after ca. 3 weeks vs untreated controls, 100% = plants have died off, 0% = as control plants
Excerpt: as §1

VERPE = test: B. Herbicidal post-emergence action on harmful plants (Tables B); assay type: in vivo, Veronica persica; conditions: application rate 1280 g/ha; Table B11a
Description: (§2) Seeds of mono- and dicotyledonous weed plants were placed in plastic pots in sandy loam soil (doubly sown with in each case one species of mono- or dicotyledonous weed plants per pot), covered with soil and cultivated in a greenhouse under controlled growth conditions. 2 to 3 weeks after sowing, the test plants were treated at the one-leaf stage. The compounds of the invention, formulated in the form of wettable powders (WP) or as emulsion concentrates (EC), were applied onto the green parts of the plants as aqueous suspension or emulsion with addition of 0.5% additive at a water application rate of 600 liters per hectare (converted). After the test plants had been kept in the greenhouse under optimum growth conditions for about 3 weeks, the activity of the preparations was rated visually in comparison to untreated controls. For example, 100% activity = the plants have died, 0% activity = like control plants. Tables B1 to B12, below, show the effects of selected compounds of the general formula (I) according to table 1 on various harmful plants and an application rate corresponding to 1280 g/ha or below obtained by the experimental procedure mentioned above. Table B1a: post-emergence activity at 1280g/ha against ABUTH in %

POAAN [3] = test: as above; assay type: in vivo, Poa annua
Description: as §2

ECHCG [4] = test: as above; assay type: in vivo, Echinochloa crus-galli; conditions: application rate 1280 g/ha; Table B2a
Description: as §2

MATIN [5] = test: A. Herbicidal pre-emergence action on harmful plants (Tables A); assay type: in vivo, Matricaria inodora
Excerpt: as §1

DIGSA = test: as above; assay type: in vivo, Digitaria sanguinalis
Excerpt: as §1

STEME = test: as above; assay type: in vivo, Stellaria media; conditions: visual grading after ca. 3 weeks vs untreated controls, 100% = plants have died off, 0% = as control plants
Excerpt: as §1

MATIN [6] = test: B. Herbicidal post-emergence action on harmful plants (Tables B); assay type: in vivo, Matricaria inodora; conditions: application rate 1280 g/ha; Table B4a
Description: as §2

AMARE = test: A. Herbicidal pre-emergence action on harmful plants (Tables A); assay type: in vivo, Amaranthus retroflexus; conditions: application rate 1280 g/ha; visual grading after ca. 3 weeks vs untreated controls; 100% = plants have died off, 0% = as control plants
Excerpt: as §1

[7] = application rate 320 g/ha, Table A7b
[8] = application rate 1280 g/ha, visual grading after ca. 3 weeks vs untreated controls, 100% = plants have died off, 0% = as control plants
[9] = application rate 1280 g/ha, Table A9a
[10] = application rate 80 g/ha, Table A7c
[11] = application rate 320 g/ha, Table B7b
[12] = application rate 1280 g/ha, Table B7a
[13] = application rate 320 g/ha, Table A12b
[14] = application rate 1280 g/ha, Table A12a
[15] = application rate 320 g/ha, Table A9b

Structure (SMILES)	pre-emergence activity against ECHCG (ECHCG [1]; application rate 320 g/ha)	pre-emergence activity against ECHCG (ECHCG [1]; application rate 1280 g/ha)	pre-emergence activity against SETVI (SETVI; application rate 1280 g/ha)	pre-emergence activity against POAAN (POAAN [2]; [7])	pre-emergence activity against POAAN (POAAN [2]; [8])	pre-emergence activity against ALOMY (ALOMY; [9])	pre-emergence activity against LOLRI (LOLRI; application rate 320 g/ha)	pre-emergence activity against LOLRI (LOLRI; application rate 1280 g/ha)	post-emergence activity against VERPE (VERPE)	pre-emergence activity against POAAN (POAAN [2]; [10])	post-emergence activity against POAAN (POAAN [3]; [12])	pre-emergence activity against MATIN (MATIN [5]; [8])	pre-emergence activity against DIGSA (DIGSA; [13])	pre-emergence activity against DIGSA (DIGSA; [14])	pre-emergence activity against STEME (STEME; application rate 1280 g/ha)	pre-emergence activity against SETVI (SETVI; application rate 320 g/ha)	pre-emergence activity against AMARE (AMARE)	further results
COCc1nn(C)cc1C(=O)N1CCCC1Cc1ccccc1OC (racemic) [Example I-014]	90%	100%	90%	100%	100%	90%	90%	100%	90%	–	–	–	–	–	–	–	–	–
COCc1nn(C)cc1C(=O)N1CCCC1Cc1ncccc1F (racemic) [Example I-015]	90%	100%	90%	100%	100%	90%	–	100%	90%	100%	90%	–	–	–	–	–	–	post-emergence activity against POAAN (POAAN [3]; [11]): 90%
COCc1nn(C)cc1C(=O)N1CCCC1Cc1ccc(Cl)cc1Cl (racemic) [Example I-016]	90%	100%	90%	100%	100%	–	–	–	–	–	90%	–	–	–	–	–	–	post-emergence activity against ECHCG (ECHCG [4]): 90%
COCc1nn(C(=O)NC2CC2)cc1C(=O)N1CCCC1Cc1ccccc1F (racemic) [Example I-036]	90%	100%	90%	90%	100%	90%	90%	90%	90%	90%	–	90%	90%	100%	90%	–	–	pre-emergence activity against STEME (STEME; application rate 320 g/ha): 90%
COCc1nn(C)cc1C(=O)N1CCCC1Cc1c(F)cccc1F (racemic) [Example I-081]	100%	100%	100%	100%	100%	100%	100%	100%	–	100%	100%	90%	100%	100%	90%	100%	90%	pre-emergence activity against MATIN (MATIN [5]; application rate 320 g/ha, visual grading after ca. 3 weeks vs untreated controls, 100% = plants have died off, 0% = as control plants): 90%; pre-emergence activity against DIGSA (DIGSA; application rate 80 g/ha, Table A12c): 90%; pre-emergence activity against ECHCG (ECHCG [1]; application rate 80 g/ha): 90%; pre-emergence activity against SETVI (SETVI; application rate 80 g/ha): 90%; pre-emergence activity against ALOMY (ALOMY; [15]): 90%; post-emergence activity against MATIN (MATIN [6]): 90%; pre-emergence activity against LOLRI (LOLRI; application rate 80 g/ha): 100%; post-emergence activity against POAAN (POAAN [3]; application rate 80 g/ha, Table B7c): 90%; post-emergence activity against POAAN (POAAN [3]; [11]): 90%
COCc1c(C(=O)N2CCCC2Cc2ccc(F)cc2F)cnn1C (racemic) [Example I-158]	–	100%	90%	100%	100%	100%	–	90%	–	–	100%	90%	–	100%	90%	–	–	pre-emergence activity against ALOMY (ALOMY; [15]): 100%; post-emergence activity against ECHCG (ECHCG [4]): 90%
COCc1c(C(=O)N2CCCC2Cc2ccc(Cl)cc2Cl)cnn1C (racemic) [Example I-166]	–	90%	90%	90%	100%	–	–	100%	90%	90%	90%	–	–	–	90%	–	90%	post-emergence activity against MATIN (MATIN [6]): 90%; post-emergence activity against ECHCG (ECHCG [4]): 90%
COCc1nn(C)c(Cl)c1C(=O)N1CCCC1Cc1ccccc1F (single isomer, unassigned) [Example I-058]	90%	100%	100%	–	100%	–	–	90%	–	–	90%	–	90%	100%	90%	90%	100%	pre-emergence activity against MATIN (MATIN [5]; pre-emergence, 1280 g/ha, 504 h): 90%
COCc1c(C(=O)N2CCCC2Cc2ccccc2C)cnn1C (single isomer, unassigned) [Example I-139]	–	100%	100%	100%	100%	–	–	90%	–	100%	–	–	90%	100%	–	–	90%	–
CCOCc1c(C(=O)N2CCCC2Cc2ccccc2F)cnn1C (single isomer, unassigned) [Example I-142]	90%	100%	100%	100%	100%	90%	90%	100%	–	90%	90%	90%	90%	100%	90%	90%	90%	pre-emergence activity against ECHCG (ECHCG [1]; application rate 80 g/ha): 90%; pre-emergence activity against STEME (STEME; application rate 320 g/ha): 90%
COCc1c(C(=O)N2CCCC2Cc2cc(F)ccc2F)cnn1C (single isomer, unassigned) [Example I-188]	90%	100%	100%	100%	100%	90%	–	100%	–	90%	90%	90%	90%	100%	90%	100%	–	pre-emergence activity against SETVI (SETVI; application rate 80 g/ha): 90%
